According to ChEMBL document CHEMBL3507680, “University of Dundee, Gates Library screen for HepG2 cell viability”:

Assay: Human HepG2 cell viability assay in 384 well format
Type: toxicity, cell-based
Set-up: dose 125 nL, time 70.5 hour; cytotoxicity at 70.5 h: concentration not given beside the values
Details: HepG2 cells, read-out: Inhibition

Row | Structure (SMILES) | cytotoxicity at 70.5 h
1 | CC(C)N1CCC(Cc2cc(-c3cc(F)ccc3C(=O)O)ncn2)C1 (centres undefined) | -3%
2 | Cc1cnn(CC2CCCCN2C(=O)Cn2nc(C)c(Cl)c2C)c1 (centres undefined) | -4.01%
3 | Cn1cc(C2CCCN2Cc2csc(C(C)(C)C)n2)cn1 (centres undefined) | 25.7%
4 | CN(Cc1cccs1)C(=O)CN1CCCC1Cn1cncn1 (centres undefined) | 2.88%
5 | COc1ncccc1CNCc1c(C)nn(C)c1N1CCOCC1 | -12.3%
6 | CC(C(=O)NCc1ccnc(OCC(F)(F)F)c1)n1cncn1 (centres undefined) | -2.68%
7 | Cc1ccc2c(c1)nc1n2[C@@H](CNC(=O)c2ccccn2)COC1 | 11.4%
8 | COc1cccc(N2CCN(C(=O)C(OC)c3ccccc3)CC2=O)c1 (centres undefined) | -7.1%
9 | O=C(C1CCCC1)N1CCn2c(nnc2C2CCCNC2)C1 (centres undefined) | -3.22%
10 | Cc1nc(C)n(C2CCCN(C(=O)c3c[nH]c(C(C)C)n3)C2)n1 (centres undefined) | -11.1%
11 | O=C(NCCNc1ncccn1)NCCc1c(F)cccc1F | -13.1%
12 | Cc1nc(CCNc2ccc(-c3nc(C)c(C)c(=O)[nH]3)cn2)cs1 | -1.37%
13 | F[C@@H]1CN(Cc2nccs2)C[C@@H]1OCc1nc2cnccc2[nH]1 | -3.2%
14 | CC(=O)c1ccc(-c2cnn(CC(=O)Nc3cc(C)nn3C)c2)nc1 | -13%
15 | Cc1cc(N2CCC(O)CC2)nc(C)n1 | 1.14%
16 | Cc1noc(C)c1CN1CCN(Cc2cccnc2)c2ncccc2C1 | -6.13%
17 | CNc1cncc(C2CCCN2Cc2ccn(C)n2)n1 (centres undefined) | -1.7%
18 | CC(C)(C)c1n[nH]c(C2CN(C(=O)c3cnc[nH]3)CCO2)n1 (centres undefined) | -7.66%
19 | COc1ccc(CC2CN(C(=O)c3coc(C)n3)CCO2)cc1 (centres undefined) | -9.96%
20 | CSCC[C@H](NC(C)=O)c1nc(CCc2ccccc2)n[nH]1 | -3.53%
21 | Cc1cnc(N2CCC3(CCCN(c4ncc(F)cn4)C3)C2)nc1 (centres undefined) | -5.99%
22 | Cc1cccc(CN2Cc3ccnn3CC(COCC3CC3)C2)n1 (centres undefined) | 8.5%
23 | O=C(c1ccco1)N1CCO[C@@H]2CN(c3ncc(F)cn3)CC[C@@H]2C1 | -5.01%

Row | Structure (SMILES) | cytotoxicity at 70.5 h
24 | O=C1CCC2(CCCN(c3ncc(F)cn3)CC2)N1Cc1ccccc1 (centres undefined) | 1.63%
25 | CC1CCCN(C(=O)CCc2cccnc2)C1 (centres undefined) | -3.28%
26 | Cc1nc(CN(C)Cc2csc(-c3cccs3)n2)co1 | 6.2%
27 | O=C(CC1CC1)N1CCn2cc(Cn3cccn3)nc2C1 | -15.8%
28 | Cc1oncc1C(=O)N1CCc2ncnc(-c3cnn(C)c3)c2CC1 | -1.31%
29 | CN(C)[C@H]1CCN(c2ccnc(C(=O)NCc3ccco3)c2)C1 | -5.04%
30 | CCc1csc(C2CCCN(C(=O)c3cnn(CC)c3)C2)n1 (centres undefined) | 6.03%
31 | Cc1cc(CN2CC[C@@H]3[C@@H](CCC(=O)N3CCc3c[nH]cn3)C2)oc1C | 1.03%
32 | O=C(NCCc1ccccc1)C1CCCN(c2ccc3nncn3n2)C1 (centres undefined) | -9.33%
33 | Cc1nc(N2CCC(O)(c3ccccc3)CC2)c2c(C)nn(C)c2n1 | -3.33%
34 | COCc1noc(CNc2nc(C3CCCC3)nc3c2CCNCC3)n1 | -10.6%
35 | CC(C)Oc1cccc(C(=O)Nc2nncs2)c1 | -11.6%
36 | O=C1CCCN1CCC1CCN(C2CCCNC2)CC1 (centres undefined) | -1.85%
37 | O=C(COc1ccc(Cl)cc1)Nc1cnc(N2CCOCC2)nc1 | 1.79%
38 | Cc1cc(C(=O)N2CCC(n3nc(C)cc3C)C2)c2ccc(F)cc2n1 (centres undefined) | -9.21%
39 | CC[C@H]1N(Cc2ccco2)CCC[C@]12CCC(=O)N2C | -15.5%
40 | CC(C)(C)Oc1ccc(NCC(=O)NCc2ccco2)cc1 | -18.5%
41 | Clc1cc(Cl)cc(OCCN2CCC(n3cncn3)CC2)c1 | -0.108%
42 | c1cnc(N2CCCC3(CN(CC4CCOCC4)CCO3)C2)cn1 (centres undefined) | -3.73%
43 | COc1ccc(C(C#N)NC(=O)Cc2ccc(F)c(F)c2)c(OC)c1 (centres undefined) | -3.6%
44 | CCCN(C(=O)CCS(=O)(=O)Cc1ccccc1)c1cccc(C)c1 | -4.29%
45 | CC(=O)NCc1ccc(-c2ccccc2C(=O)O)cn1 | -1.2%
46 | Cc1cc(C2CCCN2Cc2cc(-c3ccco3)on2)on1 (centres undefined) | -14.5%

Row | Structure (SMILES) | cytotoxicity at 70.5 h
47 | N#Cc1ccc(OC2CCN(C(=O)c3ccc(Br)o3)CC2)nc1 | 20.2%
48 | CCCNC(=O)c1nc2c(o1)CN(C(=O)CN(C)C)C2 | -8.52%
49 | COCC1c2c(cnn2CC2CC2)CCN1Cc1cc(C)on1 (centres undefined) | -12.7%
50 | Cc1cccnc1CNCC1(O)CCCN(CC2CCCCC2)C1=O (centres undefined) | -7.77%
51 | Cc1ccc(S(=O)(=O)NCCOc2ccc3nnc(C)n3n2)s1 | -14.5%
52 | Cc1ccccc1NS(=O)(=O)c1ccc(C(=O)O)cc1F | -2.98%
53 | CCc1nc(CNc2ccc(C(=O)NCc3ccco3)cc2C)no1 | -9.99%
54 | CC(C)(C)NC(=O)C1CSCN1S(=O)(=O)c1ccccc1S(C)(=O)=O (centres undefined) | -1.89%
55 | COc1ccc(OC2CCN(C(=O)CCc3n[nH]c(N)n3)CC2)cc1 | 21.5%
56 | CCn1cc(S(=O)(=O)NCc2ccnc(-n3ccnc3)c2)cn1 | -6.31%
57 | CCNC(=O)CNCc1c(C(C)C)nn(C)c1N1CCOCC1 | -2.6%
58 | Cc1nncn1CCNC(=O)C(C)(C)c1cccc(C(F)(F)F)c1 | -9.3%
59 | O=C(Nc1cncc(Br)c1O)c1ccon1 | -2.33%
60 | CC(C)[C@H]1CN(CC2CCC2)C[C@@H]1NC(=O)c1ccc(=O)[nH]c1 | 3.69%
61 | CCCc1noc(CNc2ccc(C(=O)N3CCCC3)cc2C)n1 | -0.0635%
62 | COc1ccc(S(=O)(=O)NC(=O)COc2ccc3c(c2)CCC3)cc1 | 17.6%
63 | COCCC1(C(=O)NCCc2nncn2C2CC2)CCC1 | -13.5%
64 | Cc1cccc(CN2CCC3(CCCN(C(=O)c4ccsc4)C3)C2=O)n1 (centres undefined) | 5.46%
65 | CS(=O)(=O)N1CCCn2nc(CNc3ncccn3)cc2C1 | -1.06%
66 | Cn1c(=O)oc2cc(S(=O)(=O)N3CCC(c4ccccc4)C3)c(Cl)cc21 (centres undefined) | 25%
67 | CCN1CCN(Cc2c(C3CCCC3)[nH]c3ncccc23)CC1 | -6.15%
68 | COc1cc(F)ccc1N1CCN(Cc2nc(C)c(C)o2)CC1 | -11.2%
69 | CN1CC(c2ccccc2)CC2(CCN(Cc3ncc[nH]3)CC2)C1 (centres undefined) | -9.18%

Row | Structure (SMILES) | cytotoxicity at 70.5 h
70 | Cc1oc(-c2ccsc2)nc1CC(=O)NCC(=O)Nc1cn[nH]c1 | -13%
71 | Cc1ccc(CN2CC[C@]3(C[C@H](OCc4ccccn4)CO3)C2)o1 | -18.4%
72 | NC(=O)NC(=O)CN1CCN(c2nccs2)CC1 | -11.6%
73 | Cc1ccc(C2(O)CCN(C(=O)c3cccc(S(C)(=O)=O)c3)CC2)nc1 | -4.42%
74 | CCOCC(=O)N1C[C@@H](O)[C@H](NC(C)=O)C1 | -4.78%
75 | CCC(C)NC(=O)NCCCn1nc2ccccn2c1=O (centres undefined) | -9.52%
76 | Cc1cccc(-n2c(C)cc(C(=O)N3CCn4c(C)nnc4C3)c2C)c1 | -1.57%
77 | CCc1ccc2nc(NCC(O)CO)cc(C)c2c1 (centres undefined) | 1.81%
78 | Cc1nn(CC(=O)N2CCN(c3cnccn3)CC2)c(C)c1Cl | -9.18%
79 | Cc1nn(C)c(Oc2cccnc2)c1NC(=O)C1CCCO1 (centres undefined) | -3.71%
80 | Cc1noc(C(C)N2CCN(CCn3ccccc3=O)CC2)n1 (centres undefined) | -1.66%
81 | Cc1nnc(C2CCN(C(=O)c3ccc(-n4cccc4)cc3)CC2)s1 | 28%
82 | CS(=O)(=O)NCC(=O)NCc1cccnc1-n1cnc2ccccc21 | 17.2%
83 | COc1ccc2nc(CCNC(=O)c3cc(CC(C)C)no3)[nH]c2c1 | -15.4%
84 | COc1cc(CNCCc2cc(F)cc3c2OCOC3)cc(OC)c1 | 1.52%
85 | Cc1cc(CN2CCN(S(=O)(=O)c3c(C)c(Cl)cc(C)c3Cl)CC2)on1 | -9.59%
86 | Cc1occc1C(=O)N1C[C@H]2CCCC(OCc3cccnc3)[C@H]2C1 (some centres undefined) | -4.67%
87 | Cc1cc(C(F)(F)F)c2c(=O)n(Cc3cc(C)on3)n(C)c2n1 | -8.02%
88 | O=C1CCCCN1c1cccc(CNC2CCCC2)c1 | -17.9%
89 | O=C(c1ccc(C2CCCN2)s1)N1CCN2CCC1CC2 (centres undefined) | -5.88%
90 | CC(C)C(C)(O)CNc1cccc(F)c1C#N (centres undefined) | -7.64%
91 | NC(=O)Nc1cccc(CNC(=O)CCCc2ccccc2)c1 | 18%
92 | COc1cccc(-c2nc(C)c(C(=O)NCCC(=O)O)s2)c1 | -15.8%

Row | Structure (SMILES) | cytotoxicity at 70.5 h
93 | CC(=O)N1CCc2c(nc(-c3ccccn3)nc2N(C)CC(O)CO)C1 (centres undefined) | -9.73%
94 | CCS(=O)(=O)N1C[C@@H](c2ccccc2)[C@@]2(CCNC2=O)C1 | -4.06%
95 | CCc1ccc(CN2CCN(c3ncc(Cl)cn3)CC2)nc1 | -5.54%
96 | CC(C)Nc1cc(N2CCCC3(CN(C)C(=O)O3)C2)ncn1 (centres undefined) | 15%
97 | CN1CCOC[C@H]1c1nc(-c2ccncc2)c[nH]1 | 1.37%
98 | Cc1n[nH]cc1CNC1CCN(c2ccccc2)CC1 | 24.8%
99 | COc1ccc(N2Cc3nc(N)ncc3C2=O)cc1 | 9.83%
100 | O=C(NCC1CC1)C1CCC2(CCN(C(=O)c3cnccn3)CC2)O1 (centres undefined) | 9.2%
101 | COc1cccc(-c2ccnc(C3CCNCC3)c2)c1 | 7.37%
102 | CC(C)c1nnc2n1CCN(C(=O)c1ccnc(-n3ccnc3)c1)C2 | 19.7%
103 | CCCN1CCCN(S(=O)(=O)c2cnc3onc(C)c3c2)CC1 | 2.21%
104 | CCCc1cc(C(=O)N(CC)Cc2ccncc2)[nH]n1 | -7.59%
105 | CN(Cc1cccnc1)C[C@@H]1OC[C@H]2CN(C(=O)C3CC3)CC[C@H]21 | -5.43%
106 | O=C1CCCN1CCN1CCCC(c2ccn[nH]2)C1 (centres undefined) | 27.7%
107 | CSc1cc2c(cc1NC(=O)N(C)Cc1cnn(C)c1)OCCO2 | 2.84%
108 | c1cc(C2CN(C3CCCCC3)C2)n[nH]1 | 17.8%
109 | O=C(CCn1ccc2cc(Br)ccc21)/N=c1\[nH]nc(C2CCCO2)s1 (centres undefined) | -12%
110 | Cn1nnnc1SCCNC(=O)c1c[nH]nc1C1CCCCC1 | -9.31%
111 | COc1ccc(NC(=O)Cn2cc(-c3ccccc3)ncc2=O)cn1 | -6.77%
112 | CC(C)C(=O)Nc1cccc(C(=O)Nc2ccccn2)c1 | -25.2%
113 | Cc1nc(C)n(C2CCCN(C(=O)CCCNc3ncccn3)C2)n1 (centres undefined) | -4.88%
114 | COCCN1C(=O)CC[C@@H]2[C@H]1CCN2S(=O)(=O)c1cccs1 | 20.8%
